Measurements as given in ChEMBL document CHEMBL1140786, “Synthesis of 4,5,6,7-tetrahydrothieno[3,2-c]pyridines and comparison with their isosteric 1,2,3,4-tetrahydroisoquinolines as inhibitors of phenylethanolamine N-methyltransferase” (Bioorg Med Chem, 2008).
pKi: −log10 of the molar value.

Experiments:
[1] = target: T1, Phenylethanolamine N-methyltransferase (Homo sapiens, UniProt P11086); experiment: Inhibition of human PNMT by radiochemical assay
T1 sequence (P11086 whole entry): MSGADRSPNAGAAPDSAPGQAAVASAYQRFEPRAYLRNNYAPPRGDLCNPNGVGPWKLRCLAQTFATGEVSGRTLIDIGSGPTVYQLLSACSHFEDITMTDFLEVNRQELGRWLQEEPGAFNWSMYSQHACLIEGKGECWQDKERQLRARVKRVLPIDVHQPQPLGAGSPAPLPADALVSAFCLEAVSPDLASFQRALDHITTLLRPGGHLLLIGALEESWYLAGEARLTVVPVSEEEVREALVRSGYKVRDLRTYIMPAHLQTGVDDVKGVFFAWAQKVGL

[2] = target: Alpha-2 adrenergic receptor (Rattus norvegicus); experiment: Displacement of [3H]clonidine from adrenergic alpha-2 receptor in Sprague-Dawley rat cortex
[3] = organism: Homo sapiens; experiment: Selectivity of Ki for human PNMT over Ki for rat alpha2 adrenoceptor
[4] = target: Phenylethanolamine N-methyltransferase (Homo sapiens) (UniProt P11086); experiment: Inhibition of human PNMT by radiochemical assay

Row | SMILES | pKi [2] | also measured
1 | NCCc1cccs1 | 5.92 | pKi [1]: 3.52; Ratio Ki [3]: 0.004
2 | c1cc2c(s1)CCNC2 | 5.82 | –
3 | NCc1cccs1 | 4.57 | pKi [1]: 3.35; Ratio Ki [3]: 0.12
4 | FC(F)(F)C1Cc2sc(Br)cc2CN1 (stereo not drawn) | < 3.00 | –
5 | BrC1=CC2CNCCC2S1 (stereo not drawn) | 6.42 | –
6 | CC(=O)c1ccc2c(c1)CNCC2 | – | pKi [4]: 5.30
7 | O=[N+]([O-])C1=CC2CNCCC2S1 (stereo not drawn) | 4.74 | –
8 | FC(F)(F)C1Cc2sc3ccccc3c2CN1 (stereo not drawn) | < 3.30 | –
9 | NC(=O)c1cc2c(s1)CCNC2 | 5.39 | –
10 | CC1Cc2ccc(Br)cc2CN1 (racemic) | 5.96 | –
11 | CC1Cc2sc3ccccc3c2CN1 (racemic) | – | pKi [4]: 7.17
12 | C[C@H]1Cc2sc(C#N)cc2CN1 | 3.89 | –
13 | N#Cc1cc2c(s1)CCNC2 | 4.80 | –
14 | C[C@@H]1Cc2sc(C#N)cc2CN1 | 4.33 | –
15 | FC(F)(F)C1CC2SC=CC2CN1 (stereo not drawn) | 2.82 | –
16 | Cc1ccc2c(c1)CNCC2 | – | pKi [4]: 5.70
17 | c1ccc2c(c1)CCNC2 [1,2,3,4-TETRAHYDROISOQUINOLINE] | – | pKi [4]: 5.30
18 | C[C@H]1Cc2sc([N+](=O)[O-])cc2CN1 | 4.54 | –
19 | NCCc1ccccc1 [PHENETHYLAMINE] | – | pKi [4]: 3.66
20 | Cc1cc2c(s1)CCNC2 | 6.31 | –
21 | NCc1ccsc1 | 4.49 | pKi [1]: 3.96; Ratio Ki [3]: 0.29
22 | CC1CC2SC=CC2CN1 (stereo not drawn) | 4.54 | –
23 | CC1Cc2ccccc2CN1 (racemic) | – | pKi [4]: 5.85
24 | NC(=O)c1ccc2c(c1)CNCC2 | – | pKi [4]: 4.14
25 | CC(=O)c1cc2c(s1)CCNC2 | 5.01 | –
26 | C[C@@H]1Cc2sc([N+](=O)[O-])cc2CN1 | 4.89 | –
27 | CC1Cc2sc(Br)cc2CN1 (stereo not drawn) | 5.64 | –
